# Measured values reported in patent publication US9988405B2, “O-phenyl chalcone compounds and uses thereof” (Neopanora Bio-technology (Zhuhai) Ltd., priority 2014, dated 2018).
# Where two headings read alike, the source gives them in different places.
# What was measured:
# [1] = test system: cis-platinum resistant human lung cancer cell A549/CDDP; experiment: SRB anti-proliferative assay, drug-resistant A549/CDDP; assay type: cell-based; conditions: read-out: Anti-proliferative IC50, A549/CDDP
# Experimental: (§1) The present example evaluated the anti-tumor activity of the molecules provided by the present invention. The present example mainly used a method with SRB (sulforhodamine B) dying, in which proteins in the cell were stained with SRB dye to determine protein content in the cell so as to characterize cell growth density. Firstly, the test compound was formulated into a stock solution (10 mM), which was stored at 4° C. in a refrigerator. Prior to beginning the assay, the stock solution was diluted with DMSO into a series of different concentrations. The required concentrations were obtained by diluting with complete growth medium. Well growing cells were seeded in a 96-well plate (5000 cells/well, 100 uL) and cultured in an incubator at 37° C., 5% CO2, and 90% RH. 24 h later, the prepared compound solution (100 μL) was slowly added to cell solution in the 96-well plate, and the well with DMSO (final concentration 0.5%) instead of the drug was used as a drug free control. The plate was incubated for 48 h. In addition, a day 0 plate that was drug free was directly detected after cell seeded in the plate for 24 h. The 96-well plate was taken out and added with trichloroacetic acid (50 μL, final concentration 10%). The plate was incubated at 4° C. for 1 h to fix the cells.
# (§2) The plate was washed with ultrapure water and air-dried. The plate was then stained with SRB dye (0.4% in 1% acetic acid, 100 μL) for 30 min at room temperature. The plate was then washed with 1% acetic acid and then air-dried. A Tris base solution (100 μL, 10 mM, pH10.4) was added, after which the plate was gently shaken for 1 h on an orbital shaker to ensure that the dyes were completed dissolved. The optical density (OD) was recorded on a TECAN Infinite M200 Pro multimode reader at 515 nm. The cell growth (% of control)=(OD value of wells added with drug−mean OD value of Day 0 plate)/(OD value of DMSO drug-free control well−mean OD value of Day 0 plate)*100.
# (§3) We also evaluated the anti-proliferation activities of selected compounds against drug-resistant cancer cell lines.
# [2] = test system: human breast cancer cells MCF7; experiment: SRB anti-proliferative assay, MCF-7; assay type: cell-based; conditions: read-out: Anti-proliferative IC50, MCF-7
# Experimental: as §1, §2
# [3] = test system: human lung cancer cells A549; experiment: SRB anti-proliferative assay, A549; assay type: cell-based; conditions: read-out: Anti-proliferative IC50, A549
# Experimental: as §1, §2
# tubulin = experiment: Microtubule polymerization inhibition assay (tubulin polymerization assay kit); assay type: biochemical; conditions: 2 mg/ml tubulin, 37° C., fluorescence, 1 hour; read-out: IC50 on inhibition of microtubules polymerization
# Experimental: Tubulin polymerization assay kit was used in the example, and the accompanying experimental protocol was followed. The specific method was described below.
# Prior to the assay, the compounds were diluted with DMSO into a series of different concentrations and then diluted with sterile ultra-pure water into 10× solution of compounds. A 96-well plate was pre-warmed to 37° C. for 30 min in a multi-functional microplate reader. Reaction solution (2 mg/ml tubulin, 80 mM PIPES pH6.9, 2.0 mM MgCl2, 0.5 mM EGTA, 1.0 mM GTP, 15% glycerin) is prepared by materials needed in microtubule polymerization (tubulin buffer 85 uL, Glycerin buffer 150 μL, general buffer 205 μL, GTP ([…]) 4.4 μL). 5 μL solution of compound were added into the 96-well plate and incubated in a microplate reader for 1 min. DMSO was employed as a control. The plate was taken out and then reaction solution was immediately added ([…]). The plate was then immediately placed back into the reader and vibrated for 5 seconds before recording. The microplate reader was set at 37° C., and monitored in a kinetic model with emission wavelength at 450 nm and excitation wavelength at 360 nm. The plate was mixed and measured every minute and determined for 1 hour. A curve of fluorescence intensity v.s. time was obtained and the inhibition rate was calculated by the following formula. GraphPad Prism software was used to determine the IC50. Inhibition rate=[1−(average value of plateau of test curve−value of time 0)/(average value of plateau of DMSO curve−value of time 0)]*100.
# [4] = test system: human liver cancer cell HepG2; experiment: SRB anti-proliferative assay, HepG2; assay type: cell-based; conditions: read-out: Anti-proliferative IC50, HepG2
# Experimental: as §1, §2
# [5] = test system: human nasopharyngeal carcinoma cells CNE2; experiment: SRB anti-proliferative assay, CNE2; assay type: cell-based; conditions: read-out: Anti-proliferative IC50, CNE2
# Experimental: as §1, §2
# [6] = test system: doxorubicin resistant breast cancer cell MCF-7/DOX; experiment: SRB anti-proliferative assay, drug-resistant MCF-7/DOX; assay type: cell-based; conditions: Homo sapiens, MCF7-DOX, read-out: Anti-proliferative IC50, MCF-7/DOX
# Experimental: as §1, §2, §3
# [7] = test system: human colon cancer cells HCT8; experiment: SRB anti-proliferative assay, HCT-8; assay type: cell-based; conditions: read-out: Anti-proliferative IC50, HCT-8
# Experimental: as §1, §2
# [8] = test system: human colon cancer cells SW480; experiment: SRB anti-proliferative assay, SW480; assay type: cell-based; conditions: read-out: Anti-proliferative IC50, SW480
# Experimental: as §1, §2
# [9] = test system: human ovary cancer cells A2780; experiment: SRB anti-proliferative assay, A2780; assay type: cell-based; conditions: read-out: Anti-proliferative IC50, A2780
# Experimental: as §1, §2
# [10] = test system: incristine resistant human ileocecum carcinoma cell HCT-8/VCT; experiment: SRB anti-proliferative assay, drug-resistant HCT-8/VCT; assay type: cell-based; conditions: HCT8/VCT, read-out: Anti-proliferative IC50, HCT-8/VCT
# Experimental: as §1, §2, §3
# [11] = test system: Paclitaxel-resistant human ovarian carcinoma cell A2780/TAX; experiment: SRB anti-proliferative assay, drug-resistant A2780/TAX; assay type: cell-based; conditions: read-out: Anti-proliferative IC50, A2780/TAX
# Experimental: as §1, §2, §3
# [12] = cis-platinum resistant A549/CDDP, SRB
# [13] = doxorubicin resistant MCF-7/DOX, SRB
# [14] = vincristine-resistant HCT-8/VCT, SRB
# [15] = paclitaxel-resistant A2780/TAX, SRB
Structure (SMILES),"IC50 [1, 12]","IC50 ([2]; MCF7, MCF-7, SRB, 48 h)","IC50 ([3]; A549, SRB, 48 h)",IC50 (tubulin),"IC50 ([4]; HepG2, SRB, 48 h)","IC50 ([5]; CNE-2, CNE2, SRB, 48 h)","IC50 [6, 13]","IC50 ([7]; HCT-8, SRB, 48 h)","IC50 ([8]; SW480, SRB, 48 h)","IC50 ([9]; A2780, SRB, 48 h)","IC50 [10, 14]","IC50 [11, 15]",other results
"COc1ccc(/C=C/C(=O)c2ccccc2-c2cc(OC)c(OC)c(OC)c2)cc1O [compound 4, (E)-3-(3-Hydroxy-4-methoxyphenyl)-1-(3′,4′,5′-trimethoxy[1,1′-biphenyl]-2-yl)prop-2-en-1-one]",,,,2780 nM,,,,,,,,,"IC50 ([1]; A549/CDDP): 93 nM; IC50 ([2]; MCF7, 48 h): 82 nM; IC50 ([3]; A549, 48 h): 69 nM; IC50 ([4]; HepG2, 48 h): 46 nM; IC50 ([5]; CNE-2, 48 h): 37 nM; IC50 [6]: 66 nM; IC50 ([7]; HCT-8, 48 h): 56 nM; IC50 ([8]; SW480, 48 h): 61 nM; IC50 ([9]; A2780, 48 h): 69 nM; IC50 [10]: 238 nM; IC50 ([11]; A2780/TAX): 364 nM"
"COc1ccc(/C=C/C(=O)c2ccccc2-c2ccc(F)cc2)cc1S(=O)(=O)O [compound 24, (E)-5-(3-(4′-Fluoro[1,1′-biphenyl]-2-yl)-3-oxoprop-1-en-1-yl)-2-methoxy benzenesulfonic acid]",93 nM,55 nM,20 nM,,13 nM,18 nM,8 nM,17 nM,14 nM,15 nM,85 nM,61 nM,
"COc1ccc(/C=C/C(=O)c2ccccc2-c2cccc(F)c2)cc1B(O)O [compound 6, (E)-(5-(3-(3′-Fluoro[1,1′-biphenyl]-2-yl)-3-oxoprop-1-en-1-yl)-2-methoxyphenyl)boronic Acid]",63 nM,83 nM,59 nM,,37 nM,55 nM,74 nM,54 nM,55 nM,62 nM,78 nM,124 nM,
"O=C(/C=C/c1ccc(N(c2ccccc2)c2ccccc2)cc1)c1ccccc1-c1cccc(F)c1 [compound 17, (E)-1-(3′-Fluoro[1,1′-biphenyl]-2-yl)-3-(4-(diphenylamino)phenyl)prop-2-en-1-one]",165 nM,123 nM,74 nM,,93 nM,43 nM,66 nM,137 nM,51 nM,133 nM,176 nM,158 nM,
"O=C(/C=C/c1ccc(O)c(S(=O)(=O)O)c1)c1ccccc1-c1ccc(F)cc1 [compound 22, (E)-5-(3-(4′-Fluoro[1,1′-biphenyl]-2-yl)-3-oxoprop-1-en-1-yl)-2-Hydroxybenzenesulfonic acid]",63 nM,70 nM,38 nM,,20 nM,23 nM,21 nM,35 nM,19 nM,39 nM,81 nM,136 nM,
"COc1ccc(/C=C/C(=O)c2ccccc2-c2cccc(F)c2)cc1OP(=O)(O)O [compound 10, (E)-(5-(3-(3′-Fluoro[1,1′-biphenyl]-2-yl)-3-oxoprop-1-en-1-yl)-2-Methoxyphenol) phosphate ester]",,,,,,,,,,,,,"IC50 ([1]; A549/CDDP): 102 nM; IC50 ([2]; MCF7, 48 h): 51 nM; IC50 ([3]; A549, 48 h): 10 nM; IC50 ([4]; HepG2, 48 h): 10 nM; IC50 ([5]; CNE-2, 48 h): 30 nM; IC50 [6]: 10 nM; IC50 ([7]; HCT-8, 48 h): 61 nM; IC50 ([8]; SW480, 48 h): 9 nM; IC50 ([9]; A2780, 48 h): 59 nM; IC50 [10]: 115 nM; IC50 ([11]; A2780/TAX): 92 nM"

# Second part, led by results:
"IC50 [1, 12]","IC50 ([2]; MCF7, MCF-7, SRB, 48 h)","IC50 ([3]; A549, SRB, 48 h)",IC50 (tubulin),"IC50 ([4]; HepG2, SRB, 48 h)","IC50 ([5]; CNE-2, CNE2, SRB, 48 h)","IC50 [6, 13]","IC50 ([7]; HCT-8, SRB, 48 h)","IC50 ([8]; SW480, SRB, 48 h)","IC50 ([9]; A2780, SRB, 48 h)","IC50 [10, 14]","IC50 [11, 15]",Structure (SMILES),other results
122 nM,96 nM,55 nM,6500 nM,52 nM,45 nM,59 nM,59 nM,74 nM,74 nM,266 nM,289 nM,"COc1ccc(/C=C/C(=O)c2ccccc2-c2ccc(OC)c(OC)c2OC)cc1O [compound 5, (E)-3-(3-Hydroxy-4-methoxyphenyl)-1-(2′,3′,4′-trimethoxy[1,1′-biphenyl]-2-yl)prop-2-en-1-one]",
105 nM,66 nM,64 nM,3560 nM,58 nM,36 nM,45 nM,133 nM,47 nM,94 nM,96 nM,49 nM,"CN(C)c1ccc(/C=C/C(=O)c2ccccc2-c2ccc(F)cc2)cc1 [compound 2, (E)-3-(4-(Dimethylamino)phenyl)-1-(4′-fluoro[1,1′-biphenyl]-2-yl)prop-2-en-1-one]",
74 nM,40 nM,70 nM,3410 nM,30 nM,83 nM,24 nM,63 nM,41 nM,63 nM,84 nM,227 nM,"COc1ccc(/C=C/C(=O)c2ccccc2-c2ccc(F)cc2)cc1B(O)O [compound 1, (E)-(5-(3-(4′-Fluoro[1,1′-biphenyl]-2-yl)-3-oxoprop-1-en-1-yl)-2-methoxyphenyl)boronic acid]",
247 nM,114 nM,64 nM,,78 nM,86 nM,75 nM,118 nM,74 nM,98 nM,156 nM,234 nM,COc1ccc(/C=C/C(=O)c2ccccc2-c2ccc(OC)c(OC)c2OC)cc1B(O)O [compound 8],
401 nM,124 nM,85 nM,,72 nM,53 nM,53 nM,153 nM,37 nM,117 nM,169 nM,156 nM,"COc1ccc(-c2ccccc2C(=O)/C=C/c2ccc(N(C)C)cc2)c(OC)c1OC [compound 9, (E)-1-(2′,3′,4′-trimethoxy[1,1′-biphenyl]-2-yl)-3-(4-(Dimethylamino)phenyl)prop-2-en-1-one]",
